Measurements reported in patent US11845752B2, “Substituted imidazo[1,5-a]pyrazines for the treatment of hepatitis B” (ALIGOS THERAPEUTICS, INC., priority 2020, dated 2023).
Like-named read-outs stand apart in the source and are kept apart here.

Tested on: HBV
Test: HBV-DNA antiviral assay using HepG2.117 cells (intracellular HBV DNA by qPCR)
Assay type: cell-based, HBV genotype D
Conditions: HBV DNA inhibition, 3 days incubation, read-out: EC50
In short: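 Read-outs: cell-lysate HBV DNA copies by qPCR (interpolated from gBlock standard) and parallel cellular ATP luminescence for CC50, both normalised to 2% DMSO controls and fitted by non-linear regression. HepG2.117 Tet-off genotype D HBV cells, induced by doxycycline removal, exposed 3 days to 4-fold serial dilutions.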

[1] = Hepatitis B virus, HepG2.117, 72 h

Row | SMILES | EC50 [1] | EC50
1 | CC1Cn2c(c(C(=O)NCc3ccccc3-n3ccc(C(F)(F)F)n3)n(-c3ccc(N4CC5(CN(C)C5)C4)cc3)c2=O)CN1C(=O)c1ccc(Br)c(C(F)(F)F)c1 (single isomer, unassigned) [Compound 110a] | 50 to 500 nM | –
2 | CC1Cn2c(c(C(=O)NCc3ccccc3-n3ccc(C(F)(F)F)n3)n(-c3ccc(N4CC5(CN(C)C5)C4)cc3)c2=O)CN1C(=O)c1ccc(Br)c(C(F)(F)F)c1 (single isomer, unassigned) [Compound 110b] | – | 50 to 500 nM
3 | CC1Cn2c(c(C(=O)NCc3ccccc3-c3nnco3)n(-c3ccc(N4CC5(CN(C)C5)C4)cc3)c2=O)CN1C(=O)c1ccc(Br)c(C(F)(F)F)c1 (single isomer, unassigned) [Compound 112a] | 500 to 5000 nM | –
4 | CC1Cn2c(c(C(=O)NCc3ccccc3-c3nnco3)n(-c3ccc(N4CC5(CN(C)C5)C4)cc3)c2=O)CN1C(=O)c1ccc(Br)c(C(F)(F)F)c1 (single isomer, unassigned) [Compound 112b] | – | 500 to 5000 nM
5 | CC1(O)CCN(c2ccc(-n3c(C(=O)NCc4ccccc4)c4n(c3=O)CCN(C(=O)c3ccc(Br)c(Cl)c3)C4)cc2)C1 (single isomer, unassigned) [Compound 115a] | 50 to 500 nM | –
6 | CC1(O)CCN(c2ccc(-n3c(C(=O)NCc4ccccc4)c4n(c3=O)CCN(C(=O)c3ccc(Br)c(Cl)c3)C4)cc2)C1 (single isomer, unassigned) [Compound 115b] | – | 50 to 500 nM
7 | O=C(NCc1ccccc1)c1c2n(c(=O)n1-c1ccc(N3CC4CC[C@H]3CO4)cc1)CCN(C(=O)c1ccc(Br)c(Cl)c1)C2 (single isomer, unassigned) [Compound 125a] | 50 to 500 nM | –
8 | O=C(NCc1ccccc1)c1c2n(c(=O)n1-c1ccc(N3CC4CC[C@@H]3CO4)cc1)CCN(C(=O)c1ccc(Br)c(Cl)c1)C2 (single isomer, unassigned) [Compound 125b] | 50 to 500 nM | –
9 | O=C(NCc1ccccc1-c1ncccn1)c1c2n(c(=O)n1-c1ccc(OC3CC3)cc1)CC(CN1CCOCC1)N(C(=O)c1ccc(Br)c(C(F)(F)F)c1)C2 (single isomer, unassigned) [Compound 132a] | 500 to 5000 nM | –
10 | O=C(NCc1ccccc1-c1ncccn1)c1c2n(c(=O)n1-c1ccc(OC3CC3)cc1)CC(CN1CCOCC1)N(C(=O)c1ccc(Br)c(C(F)(F)F)c1)C2 (single isomer, unassigned) [Compound 132b] | – | 500 to 5000 nM
11 | CC1Cn2c(c(C(=O)NCc3ccccc3-n3cc(F)cn3)n(-c3ccc(N4CCO[C@H](C)C4)cc3)c2=O)CN1C(=O)c1ccc(Br)c(Cl)c1 (stereo in doubt) [Compound 14a, (6R*)-7-(4-bromo-3-chloro-benzoyl)-N-[[2-(4-fluoropyrazol-1-yl)phenyl]methyl]-6-methyl-2-[4-[(2R)-2-methylmorpholin-4-yl]phenyl]-3-oxo-6,8-dihydro-5H-imidazo[1,5-a]pyrazine-1-carboxamide] | 50 to 500 nM | –
12 | CC1Cn2c(c(C(=O)NCc3ccccc3-n3cc(F)cn3)n(-c3ccc(N4CCO[C@H](C)C4)cc3)c2=O)CN1C(=O)c1ccc(Br)c(Cl)c1 (stereo in doubt) [Compound 14b, (6S*)-7-(4-bromo-3-chloro-benzoyl)-N-[[2-(4-fluoropyrazol-1-yl)phenyl]methyl]-6-methyl-2-[4-[(2R)-2-methylmorpholin-4-yl]phenyl]-3-oxo-6,8-dihydro-5H-imidazo[1,5-a]pyrazine-1-carboxamide] | – | < 50 nM
13 | CC1Cn2c(c(C(=O)NCc3ccccc3-c3ccncn3)n(-c3ccc(N4CCO[C@H](C)C4)cc3)c2=O)CN1C(=O)c1ccc(Br)c(Cl)c1 (stereo in doubt) [Compound 15a, (6R*)-7-(4-bromo-3-chloro-benzoyl)-6-methyl-2-[4-[(2R)-2-methylmorpholin-4-yl]phenyl]-3-oxo-N-[(2-pyrimidin-4-ylphenyl)methyl]-6,8-dihydro-5H-imidazo[1,5-a]pyrazine-1-carboxamide] | 50 to 500 nM | –
14 | CC1Cn2c(c(C(=O)NCc3ccccc3-c3ccncn3)n(-c3ccc(N4CCO[C@H](C)C4)cc3)c2=O)CN1C(=O)c1ccc(Br)c(Cl)c1 (stereo in doubt) [Compound 15b, (6S*)-7-(4-bromo-3-chloro-benzoyl)-6-methyl-2-[4-[(2R)-2-methylmorpholin-4-yl]phenyl]-3-oxo-N-[(2-pyrimidin-4-ylphenyl)methyl]-6,8-dihydro-5H-imidazo[1,5-a]pyrazine-1-carboxamide] | – | < 50 nM
15 | CNc1cc(-c2ccccc2CNC(=O)c2c3n(c(=O)n2-c2ccc(OC4CC4)cc2)C[C@@H](C)N(C(=O)c2ccc(Br)c(Cl)c2)C3)ncn1 (stereo in doubt) [Compound 39a, rac-(6R)-7-(4-bromo-3-chloro-benzoyl)-2-[4-(cyclopropoxy)phenyl]-(methylamino)pyrimidin-4-6-methyl-N-[[246-yl]phenyl]methyl]-3-oxo-6,8-dihydro-5H-imidazo[1,5-a]pyrazine-1-carboxamide] | 50 to 500 nM | –
16 | CNc1cc(-c2ccccc2CNC(=O)c2c3n(c(=O)n2-c2ccc(OC4CC4)cc2)C[C@H](C)N(C(=O)c2ccc(Br)c(Cl)c2)C3)ncn1 (stereo in doubt) [Compound 39b, rac-(6S)-7-(4-bromo-3-chloro-benzoyl)-2-[4-(cyclopropoxy)phenyl]-6-methyl-N-[[246-(methylamino)pyrimidin-4-yl]phenyl]methyl]-3-oxo-6,8-dihydro-5H-imidazo[1,5-a]pyrazine-1-carboxamide] | < 50 nM | –
17 | CC1Cn2c(c(C(=O)NCc3ccccc3-c3ccncn3)n(-c3ccc(OC[C@@H](C)O)cc3)c2=O)CN1C(=O)c1ccc(Br)c(C(F)(F)F)c1 (stereo in doubt) [Compound 55a, (6R*)-7-[4-bromo-3-(trifluoromethyl)benzoyl]-2-{4-[(2R)-2-hydroxypropoxy]phenyl}-6-methyl-3-oxo-N-{[2-(pyrimidin-4-yl)phenyl]methyl}-5H,6H,8H-imidazo[1,5-a]pyrazine-1-carboxamide] | 50 to 500 nM | –
18 | CC1Cn2c(c(C(=O)NCc3ccccc3-c3ccncn3)n(-c3ccc(OC[C@@H](C)O)cc3)c2=O)CN1C(=O)c1ccc(Br)c(C(F)(F)F)c1 (stereo in doubt) [Compound 55b, (6S*)-7-[4-bromo-3-(trifluoromethyl)benzoyl]-2-{4-[(2R)-2-hydroxypropoxy]phenyl}-6-methyl-3-oxo-N-{[2-(pyrimidin-4-yl)phenyl]methyl}-5H,6H,8H-imidazo[1,5-a]pyrazine-1-carboxamide] | – | < 50 nM
19 | C[C@H]1Cn2c(c(C(=O)NCc3ccccc3-c3ccncn3)n(-c3ccc(OC[C@@H](O)C(F)(F)F)cc3)c2=O)CN1C(=O)c1ccc(Br)c(C(F)(F)F)c1 (stereo in doubt) [Compound 62b] | 50 to 500 nM | –
20 | C[C@@H]1Cn2c(c(C(=O)NCc3ccccc3-c3ccncn3)n(-c3ccc(OC[C@H](O)C(F)(F)F)cc3)c2=O)CN1C(=O)c1ccc(Br)c(C(F)(F)F)c1 (stereo in doubt) [Compound 63a, (6RS)-7-[4-bromo-3-(trifluoromethyl)benzoyl]-6-methyl-3-oxo-N-[(2-pyrimidin-4-ylphenyl)methyl]-2-[4-[(25)-3,3,3-trifluoro-2-hydroxy-propoxy]phenyl]-6,8-dihydro-5H-imidazo[1,5-a]pyrazine-1-carboxamide] | < 50 nM | –
21 | CC1Cn2c(c(C(=O)NCc3ccccc3-c3ncccn3)n(-c3ccc(OC[C@@H](O)C(F)(F)F)cc3)c2=O)CN1C(=O)c1ccc(Br)c(C(F)(F)F)c1 (stereo in doubt) [Compound 71a, (6R*)-7-[4-bromo-3-(trifluoromethyl)benzoyl]-6-methyl-3-oxo-N-{[2-(pyrimidin-2-yl)phenyl]methyl}-2-{4-[(2R)-3,3,3-trifluoro-2-hydroxypropoxy]phenyl}-5H,6H,8H-imidazo[1,5-a]pyrazine-1-carboxamide] | < 50 nM | –
22 | CC1Cn2c(c(C(=O)NCc3ccccc3-c3ncccn3)n(-c3ccc(OC[C@@H](O)C(F)(F)F)cc3)c2=O)CN1C(=O)c1ccc(Br)c(C(F)(F)F)c1 (stereo in doubt) [Compound 71b, (6S*)-7-[4-bromo-3-(trifluoromethyl)benzoyl]-6-methyl-3-oxo-N-{[2-(pyrimidin-2-yl)phenyl]methyl}-2-{4-[(2R)-3,3,3-trifluoro-2-hydroxypropoxy]phenyl}-5H,6H,8H-imidazo[1,5-a]pyrazine-1-carboxamide] | – | 50 to 500 nM
23 | C[C@@H]1Cn2c(c(C(=O)NCc3ccccc3-c3ccncn3)n(-c3ccc4c(cnn4CC(F)(F)F)c3)c2=O)CN1C(=O)c1ccc(Br)c(C(F)(F)F)c1 (stereo in doubt) [Compound 72a, rac-(6R)-7-[4-bromo-3-(trifluoromethyl)benzoyl]-6-methyl-3-oxo-N-[(2-pyrimidin-4-ylphenyl)methyl]-2-[1-(2,2,2-trifluoroethyl)indazol-5-yl]-6,8-dihydro-SH-imidazo[1,5-a]pyrazine-1-carboxamide] | < 50 nM | –
24 | C[C@H]1Cn2c(c(C(=O)NCc3ccccc3-c3ccncn3)n(-c3ccc4c(cnn4CC(F)(F)F)c3)c2=O)CN1C(=O)c1ccc(Br)c(C(F)(F)F)c1 (stereo in doubt) [Compound 72b, rac-(6S)-7-[4-bromo-3-(trifluoromethyl)benzoyl]-6-methyl-3-oxo-N-[(2-pyrimidin-4-ylphenyl)methyl]-2-[1-(2,2,2-trifluoroethyl)indazol-5-yl]-6,8-dihydro-SH-imidazo[1,5-a]pyrazine-1-carboxamide] | 50 to 500 nM | –
25 | C[C@@H]1Cn2c(c(C(=O)NCc3ccccc3-c3ccncn3)n(-c3ccc(OC[C@@](C)(O)C(F)(F)F)cc3)c2=O)CN1C(=O)c1ccc(Br)c(C(F)(F)F)c1 (stereo in doubt) [Compound 82a, rac-(6R)-7-[4-bromo-3-(trifluoromethyl)benzoyl]-6-methyl-3-oxo-N-[(2-pyrimidin-4-ylphenyl)methyl]-2-[4-[rac-(2R)-3,3,3-trifluoro-2-hydroxy-2-methyl-propoxy]phenyl]-6,8-dihydro-5H-imidazo[1,5-a]pyrazine-1-carboxamide] | 50 to 500 nM | –
